Experimental data from US20040142971A1, “BENZOTHIOPHENE COMPOUNDS HAVING ANTIINFECTIVE ACTIVITY” (GeneSoft, Inc., priority 2001, published 2004).

Assays:
[1] = tested on: methycillin resistant Staphylococcus aureus ATCC 33591; assay: Murine neutropenic thigh model; assay type: in vivo, mice; details: 50 mg/kg intravenously two hours post infection, 6 hr after treatment
Method: A S. aureus ATCC 33591 culture was grown to log phase overnight and diluted in phosphate buffered saline (pH 7.2) to an optical density of about 0.1 at 600 nm, giving an approximate concentration of 10^8 cfu/mL. The suspension was diluted 1:100 in phosphate buffered saline (pH 7.2) for a final concentration of 10^6 cfu/mL.
Outbred female CF1 mice (approx. 20 gram body weight) were rendered neutropenic by treatment with cyclophosphamide (200 mg/kg body weight, intraperitoneal injection) at 2 and 4 days prior to inoculation. Groups of 5 mice were inoculated with 0.05 mL of the bacteria (approx. 10^6 cfu/mL) into the anterior thigh. Each group was treated intravenously two hours post infection with vehicle (phosphate buffered saline) or test compound. The mice were sacrificed at either 6 or 24 hrs after treatment and thighs were collected aseptically. Each thigh was weighed, placed into sterile saline, and homogenized. The tissue homogenates were diluted appropriately for plating on agar plates. Colony counts were recorded (cfu/gram) and compared to control groups.
In vivo efficacy was shown by a decrease in colony count (log cfu/gram of tissue) in the compound-treated animals when compared against the colony count in animals given only the vehicle.

B. Cereus ATCC 11778 = assay: MIC, NCCLS broth microdilution; assay type: cell-based, Bacillus cereus; details: A = B. Cereus ATCC 11778
Excerpt: (§1) In vitro biological activity data were collected for a variety of microorganisms, including Bacillus cereus (ATCC 11778), Staphylococcus aureus (ATCC 27660 (a methicillin resistant strain (MRSA), ATCC 33591 and ATCC 43300); ATCC 13709, a methicillin sensitive strain (MSSA)); Streptococcus pneumoniae (ATCC 51422, a penicillin resistant strain (PRSP)), Enterococcus faecium (ATCC 51559, a vancomycin resistant strain (VRE)), and Staphylococcus epidermidis (ATCC 700586, a methycillin resistant strain (MRSE)). Additionally, antifungal activity data were collected for Candida albicans (ATCC 38247). Minimal inhibition concentrations (MIC's) were determined using the National Committee for Clinical Laboratory Standards (NCCLS) broth microdilution assay in microtiter plates, as set forth in: (1) the guidelines of the National Committee for Clinical Laboratory Standards (NCCLS) Document M7-A4 (NCCLS, 1997); (2) the guidelines of the National Committee for Clinical Laboratory Standards (NCCLS) Document M11-A4 (NCCLS, 1997); and (3) the guidelines and reference method of the National Committee for Clinical Laboratory Standards (NCCLS) Document M27-T (NCCLS, 1995). For antifungal essays, the method recommended in Murray, PR., 1995 Manual of Clinical Microbiology (ASM Press, Washington, D.C.), was employed.

[2] = tested on: Candida albicans (ATCC 38247); assay: Antifungal MIC; assay type: cell-based
Excerpt: as §1, with “employed. The results are presented in Table A below, which is keyed as follows: […]” for “employed.”

[3] = tested on: S. aureus ATCC 13709 (methicillin sensitive strain, MSSA); assay: MIC, NCCLS broth microdilution; assay type: cell-based, Staphylococcus aureus; details: C = S. aureus ATCC 13709
Excerpt: as §1

[4] = tested on: S. aureus ATCC 27660 (methicillin resistant strain, MRSA); assay: MIC, NCCLS broth microdilution; assay type: cell-based, Staphylococcus aureus; details: D = S. aureus ATCC 27660
Excerpt: as §1

[5] = tested on: E. faecium ATCC 51559 (vancomycin resistant strain, VRE); assay: MIC, NCCLS broth microdilution; assay type: cell-based, Enterococcus faecium; details: B = E. faecium ATCC 51559
Excerpt: as §1

[6] = tested on: S. pneumoniae ATCC 51422 (penicillin resistant strain, PRSP); assay: MIC, NCCLS broth microdilution; assay type: cell-based, Streptococcus pneumoniae; details: H = S. pneumoniae ATCC 51422
Excerpt: as §1

[7] = tested on: S. epidermidis ATCC 700586 (methycillin resistant strain, MRSE); assay: MIC, NCCLS broth microdilution; assay type: cell-based, Staphylococcus epidermidis; details: G = S. epidermidis ATCC 700586
Excerpt: as §1

S. aureus ATCC 33591 = assay: MIC, NCCLS broth microdilution; assay type: cell-based, Staphylococcus aureus; details: E = S. aureus ATCC 33591
Excerpt: as §1

| SMILES | Colony Count (log cfu/gram) Compound [1] [log cfu/gram] | Minimum Inhibitory Concentration (MIC) (B. Cereus ATCC 11778) | MIC [2] | Minimum Inhibitory Concentration (MIC) [3] | Minimum Inhibitory Concentration (MIC) [4] | Minimum Inhibitory Concentration (MIC) [5] | Minimum Inhibitory Concentration (MIC) [6] | Minimum Inhibitory Concentration (MIC) [7] | Minimum Inhibitory Concentration (MIC) (S. aureus ATCC 33591) |
| --- | --- | --- | --- | --- | --- | --- | --- | --- | --- |
| Cn1cc(NC(=O)c2cc(NC(=O)c3cc(NC(=O)c4cc5ccccc5cn4)c[nH]3)cn2C)cc1C(=O)NCCN1CCOCC1 [Ib-50] | 7.97 | +++ (+++ = MIC ≦ 4) | ++ (++ = MIC between 4 and 12) | +++ (+++ = MIC ≦ 4) | +++ (+++ = MIC ≦ 4) | – | – | – | – |
| Cn1cc(NC(=O)c2cc(NC(=O)c3cc(NC(=O)c4sc5cc6c(cc5c4Cl)OCO6)cn3C)cn2C)cc1C(=O)NCCN1CCOCC1 [Ib-20d] | – | +++ (+++ = MIC ≦ 4) | – | +++ (+++ = MIC ≦ 4) | +++ (+++ = MIC ≦ 4) | +++ (+++ = MIC ≦ 4) | +++ (+++ = MIC ≦ 4) | +++ (+++ = MIC ≦ 4) | +++ (+++ = MIC ≦ 4) |
| Cc1cc(NC(=O)c2cc(NC(=O)c3cc(NC(=O)c4cc5ccccc5cn4)cn3C)cn2CCN2CCCC2)sn1 [Ib-65] | – | +++ (+++ = MIC ≦ 4) | – | +++ (+++ = MIC ≦ 4) | +++ (+++ = MIC ≦ 4) | +++ (+++ = MIC ≦ 4) | +++ (+++ = MIC ≦ 4) | +++ (+++ = MIC ≦ 4) | +++ (+++ = MIC ≦ 4) |
| Cn1cc(NC(=O)c2cc(NC(=O)c3cc4ccccc4cn3)no2)cc1C(=O)OCCN1CCOCC1 [Ib-61] | – | +++ (+++ = MIC ≦ 4) | – | +++ (+++ = MIC ≦ 4) | +++ (+++ = MIC ≦ 4) | +++ (+++ = MIC ≦ 4) | +++ (+++ = MIC ≦ 4) | +++ (+++ = MIC ≦ 4) | +++ (+++ = MIC ≦ 4) |
| Cn1cc(NC(=O)c2sc3cc4c(cc3c2Cl)OCO4)cc1C(=O)NCCN1CCSCC1 [Ib-20p] | – | +++ (+++ = MIC ≦ 4) | – | +++ (+++ = MIC ≦ 4) | +++ (+++ = MIC ≦ 4) | +++ (+++ = MIC ≦ 4) | +++ (+++ = MIC ≦ 4) | +++ (+++ = MIC ≦ 4) | +++ (+++ = MIC ≦ 4) |
| Cn1cc(NC(=O)c2sc3cc4c(cc3c2Cl)OCO4)cc1C(=O)NCCN1CCCC1 [Ib-20o] | – | +++ (+++ = MIC ≦ 4) | – | +++ (+++ = MIC ≦ 4) | +++ (+++ = MIC ≦ 4) | +++ (+++ = MIC ≦ 4) | +++ (+++ = MIC ≦ 4) | +++ (+++ = MIC ≦ 4) | +++ (+++ = MIC ≦ 4) |
| CN1CCCC1CCNC(=O)c1cc(NC(=O)c2cc(NC(=O)c3cc(NC(=O)c4sc5cc6c(cc5c4Cl)OCO6)cn3C)cn2C)cn1C (centres unmarked) [Ib-20m] | – | +++ (+++ = MIC ≦ 4) | – | +++ (+++ = MIC ≦ 4) | +++ (+++ = MIC ≦ 4) | +++ (+++ = MIC ≦ 4) | +++ (+++ = MIC ≦ 4) | +++ (+++ = MIC ≦ 4) | +++ (+++ = MIC ≦ 4) |
| CC(=O)[O-].Cc1cc(NC(=O)c2cc(NC(=O)c3cc(NC(=O)c4cc5ccccc5cn4)cn3C)cn2CCC[N+](C)(C)C)sn1 [Ib-74] | – | +++ (+++ = MIC ≦ 4) | – | +++ (+++ = MIC ≦ 4) | +++ (+++ = MIC ≦ 4) | +++ (+++ = MIC ≦ 4) | +++ (+++ = MIC ≦ 4) | +++ (+++ = MIC ≦ 4) | +++ (+++ = MIC ≦ 4) |
| Cn1cc(NC(=O)c2cc3ccccc3cn2)cc1C(=O)Nc1cc(C(=O)Nc2cc(C(=O)NCCN3CCOCC3)n(CCN3CCOCC3)c2)n(C)c1 [Ib-56] | – | >32 µg/mL | – | +++ (+++ = MIC ≦ 4) | +++ (+++ = MIC ≦ 4) | +++ (+++ = MIC ≦ 4) | +++ (+++ = MIC ≦ 4) | +++ (+++ = MIC ≦ 4) | +++ (+++ = MIC ≦ 4) |
| Cn1cc(NC(=O)c2cc3ccccc3cn2)cc1C(=O)Nc1cc(C(=O)Nc2cc(C(=O)NCCN3CCCCC3)n(CCN3CCCCC3)c2)n(C)c1 [Ib-68] | – | +++ (+++ = MIC ≦ 4) | – | +++ (+++ = MIC ≦ 4) | +++ (+++ = MIC ≦ 4) | +++ (+++ = MIC ≦ 4) | +++ (+++ = MIC ≦ 4) | +++ (+++ = MIC ≦ 4) | +++ (+++ = MIC ≦ 4) |
